For assay [1] the following is noted: orally administered single dose; 150 mg bicifadine, 650 mg aspirin; cited from earlier work.
The target in assay [2] is dopamine (DA) transporter (Rattus norvegicus, UniProt P23977). The assay can be described thus: Inhibition of [3H]DA uptake in rat striatum synaptosomes. In kind it is biochemical. The procedure:
(§1) The effects of 1-aryl-3-azabicyclo[3.1.0]hexanes of the invention for inhibiting transport of norepinephrine (NE) and/or dopamine (DA) and/or serotonin (5-HT) were evaluated using preparations of synaptosomes from different regions of the rat brain according to previously-reported techniques (Perovic and Muller, 1995, Janowsky et al., 1986). The subject assay methods are art-accepted models for generally assessing and predicting activities of drugs that modulate biogenic amine transport in mammals.
(§2) Whole brains were obtained from normal rats, and synaptosomal preparations were made from either whole brain (5-HT), striatum (DA) or hypothalamus (NE) by gentle disruption in 10 volumes (w/v) of 0.32 M sucrose (0-4° C.) using a Teflon-glass homogenizer. The homogenate was then centrifuged at 1000×g for 10 min. The supernatant was retained and centrifuged at 23000 g for 20 min. The resulting pellet was gently resuspended in 200 volumes of 0.32 M sucrose (0-4° C.) using a teflon-glass homogenizer. Aliquots (250 μL) of this preparation were added to tubes, along with 0.2 μCi/mL of [^3H]5-HT, [^3H]DA, or [^3H]NE, 200 μL of selected 1-aryl-3-azabicyclo[3.1.0]hexane test compounds (to yield final concentrations of 100 nM, 300 nM, 1 μM, 3 μM, 10 μM, 30 μM or 100 μM) and 1 mL of Krebs-Ringer bicarbonate buffer (pH 7.4). The mixtures were incubated for either 15 (DA and 5-HT uptake) or 20 (NE uptake) minutes at 37° C. At the end of this period, the assay was terminated by rapid filtration over Whatman GF/C glass fiber filters. The filters were rinsed 3 times with 4 ml of Krebs-Ringer bicarbonate buffer (0-4° C.), and the radioactivity retained on the filters was measured by liquid scintillation spectrometry. The results of these assays are shown in Table 3, below, which indicates, for each of the exemplary, aza-substituted compounds, the structure of the substituent, and levels of observed uptake inhibition for each of the indicated neurotransmitters. Also provided in the table is a multi-target “inhibition profile”, expressing a ratio of observed inhibition for each of the aza-substituted bicifadine across a panel of the three indicated neurotransmitters.

Assay [3] deals with norepinephrine (NE) transporter (Rattus norvegicus, UniProt Q9WTR4). The assay can be described thus: Inhibition of [3H]NE uptake in rat hypothalamus synaptosomes. Format: biochemical. The procedure:
as §1, §2

Assay [4] has as its target serotonin (5-HT) transporter (Rattus norvegicus, UniProt P31652). The experiment in a line: Inhibition of [3H]5-HT uptake in rat whole brain synaptosomes. In kind it is biochemical. The procedure: as §1, §2
The conditions of assay [5]: dental surgery patients; cited from earlier work.
Assay [6] relates to reuptake of norepinephrine, serotonin, and dopamine. The conditions noted are these: cited from earlier work.
Setting [7] is: rat striatum synaptosomes, [3H]DA, 15 min, 37° C., read-out: Inhibition of DA Uptake (IC50).
Setting [8] is: rat hypothalamus synaptosomes, [3H]NE, 20 min, 37° C., read-out: Inhibition of NE Uptake (IC50).
Setting [9] is: rat whole brain synaptosomes, [3H]5-HT, 15 min, 37° C., read-out: Inhibition of 5-HT Uptake (IC50).

Where two headings read alike, the source gives them in different places.

Chain of dopamine (DA) transporter (P23977 whole entry): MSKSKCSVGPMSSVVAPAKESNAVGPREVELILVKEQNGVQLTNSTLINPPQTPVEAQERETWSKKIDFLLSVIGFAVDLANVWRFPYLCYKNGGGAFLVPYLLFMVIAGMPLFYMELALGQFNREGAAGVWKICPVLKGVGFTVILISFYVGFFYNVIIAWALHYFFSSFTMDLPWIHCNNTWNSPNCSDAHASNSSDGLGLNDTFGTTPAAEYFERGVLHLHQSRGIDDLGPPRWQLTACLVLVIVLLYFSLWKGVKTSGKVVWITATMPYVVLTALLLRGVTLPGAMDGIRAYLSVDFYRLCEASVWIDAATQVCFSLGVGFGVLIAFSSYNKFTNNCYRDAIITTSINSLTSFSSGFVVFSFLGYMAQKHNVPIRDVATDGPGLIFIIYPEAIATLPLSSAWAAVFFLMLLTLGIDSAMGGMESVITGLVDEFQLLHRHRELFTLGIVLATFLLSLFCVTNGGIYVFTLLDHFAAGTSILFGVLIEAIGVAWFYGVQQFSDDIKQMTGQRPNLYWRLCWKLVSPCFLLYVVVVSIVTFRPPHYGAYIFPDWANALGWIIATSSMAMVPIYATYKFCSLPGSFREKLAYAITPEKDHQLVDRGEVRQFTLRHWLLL
Chain of norepinephrine (NE) transporter (Q9WTR4 1-597): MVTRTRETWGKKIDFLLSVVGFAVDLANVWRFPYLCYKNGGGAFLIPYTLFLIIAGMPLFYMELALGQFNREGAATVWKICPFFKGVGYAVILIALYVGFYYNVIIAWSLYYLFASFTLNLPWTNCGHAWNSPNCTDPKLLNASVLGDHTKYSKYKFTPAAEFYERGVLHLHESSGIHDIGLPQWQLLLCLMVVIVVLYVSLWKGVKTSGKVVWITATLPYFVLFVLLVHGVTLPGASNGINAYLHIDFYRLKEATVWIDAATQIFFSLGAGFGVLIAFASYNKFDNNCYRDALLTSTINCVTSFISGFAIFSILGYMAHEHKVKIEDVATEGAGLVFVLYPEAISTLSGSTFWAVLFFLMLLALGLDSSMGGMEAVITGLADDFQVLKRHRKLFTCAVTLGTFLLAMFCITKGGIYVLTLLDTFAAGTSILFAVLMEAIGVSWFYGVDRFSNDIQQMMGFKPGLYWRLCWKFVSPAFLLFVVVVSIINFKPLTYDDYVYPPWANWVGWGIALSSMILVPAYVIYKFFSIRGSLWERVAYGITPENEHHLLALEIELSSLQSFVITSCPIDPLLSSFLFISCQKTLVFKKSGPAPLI
Chain of serotonin (5-HT) transporter (P31652 whole entry): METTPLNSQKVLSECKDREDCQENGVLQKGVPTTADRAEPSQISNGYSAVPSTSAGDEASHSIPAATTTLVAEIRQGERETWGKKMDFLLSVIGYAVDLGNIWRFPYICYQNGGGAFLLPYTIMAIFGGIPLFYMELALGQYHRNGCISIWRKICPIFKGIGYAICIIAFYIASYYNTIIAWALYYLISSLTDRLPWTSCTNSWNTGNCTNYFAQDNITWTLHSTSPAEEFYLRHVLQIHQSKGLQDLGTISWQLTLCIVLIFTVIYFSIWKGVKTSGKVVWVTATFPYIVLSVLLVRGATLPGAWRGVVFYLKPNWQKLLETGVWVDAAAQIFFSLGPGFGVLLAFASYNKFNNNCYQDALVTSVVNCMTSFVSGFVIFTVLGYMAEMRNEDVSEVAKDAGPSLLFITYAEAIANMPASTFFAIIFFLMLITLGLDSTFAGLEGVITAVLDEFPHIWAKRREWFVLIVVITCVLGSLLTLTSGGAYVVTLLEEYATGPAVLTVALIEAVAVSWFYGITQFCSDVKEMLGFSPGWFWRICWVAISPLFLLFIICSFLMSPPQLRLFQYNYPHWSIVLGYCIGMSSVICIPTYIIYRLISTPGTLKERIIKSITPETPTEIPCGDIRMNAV

For the compound `CC(=O)Oc1ccccc1C(=O)O` [aspirin], the “analgesic activity compared to placebo” value in assay [1] is “Significant analgesic activity”.
Turning to `Cc1ccc(C23CC2CN(C(C)(C)C)C3)cc1` (stereo not shown) [t-C4H9,4-CH3], the values for the half-maximal inhibitory concentration (IC50) in assay [2] (setting [7]), in assay [3] (setting [8]) and in assay [4] (setting [9]) were 7.3 µM, 2.7 µM and 7.6 µM, respectively.
For `CN1CC2CC2(c2cccc(Cl)c2)C1` (stereo not shown) [CH3,3-Cl, 1-(3-Chlorophenyl)-3-methyl-3-aza-bicyclo[3.1.0]hexane], the IC50 in assay [2] came out at 1.3 µM; in assay [3], 0.083 µM; in assay [4], 0.27 µM.
For `Cc1ccc(C23CNCC2C3)cc1.Cl` (stereo not shown) [bicifadine, 1-p-Tolyl-3-aza-bicyclo[3.1.0]hexane hydrochloride, reference compound], the IC50 in assay [2] (setting [7]) turned out to be 1.3 µM; in assay [3] (setting [8]) it was 0.13 µM; in assay [4] (setting [9]) it was 0.13 µM. For the same compound, in assay [5], the “analgesia relative to codeine and tramadol” value was “analgesia comparable to the narcotic, codeine and the narcotic-like agent tramadol”. The “analgesic activity compared to placebo” value in assay [1] was “Significant analgesic activity”.
In the case of `CN1CC2CC2(c2ccc(C(F)(F)F)cc2)C1` (stereo not shown) [CH3,4-CF3, 3-Methyl-1-(4-trifluoromethylphenyl)-3-aza-bicyclo[3.1.0]hexane], the IC50 in assay [3] (setting [8]) came to 2.6 µM; in assay [4] (setting [9]), 0.13 µM.
Take `CCCN1CC2CC2(c2ccc(C)cc2)C1` (stereo not shown) [n-C3H7,4-CH3, 3-Propyl-1-p-tolyl-3-aza-bicyclo[3.1.0]hexane]: the figures for the IC50 in assay [2] (setting [7]), in assay [3] (setting [8]) and in assay [4] (setting [9]) were 2.7 µM, 1.4 µM and 0.76 µM, respectively.
As for `Cc1ccc(C23CC2CN(CC(F)(F)F)C3)cc1` (stereo not shown) [C2H2F3,4-CH3], the IC50 came to 48 µM in assay [2] (setting [7]) and 25 µM in assay [4] (setting [9]).
Consider `CN1CC2CC2(c2ccc(CN)cc2)C1` (stereo not shown) [CH3,4-CH2NH2, (4-(3-Methyl-3-aza-bicyclo[3.1.0]hexan-1-yl)phenyl)methanamine], for which the IC50 in assay [2] (setting [7]) is 8.5 µM; in assay [4] (setting [9]) it was 7.4 µM.
In the case of `CN1CC2CC2(c2ccc(F)cc2)C1` (stereo not shown) [CH3,4-F, 1-(4-Fluorophenyl)-3-methyl-3-aza-bicyclo[3.1.0]hexane], the IC50 in assay [2] turned out to be 3.8 µM; in assay [3], 0.17 µM; in assay [4] it was 3.4 µM.
For `Cl.Clc1ccc(C23CNCC2C3)cc1Cl` (stereo not shown) [1-(3,4-dichlorophenyl)-3-azabicyclo[3.1.0]hexane hydrochloride], in assay [6], the “inhibition of reuptake of norepinephrine, serotonin, and dopamine” value is listed as “inhibit reuptake of all three of these biogenic amines”.
`COCCN1CC2CC2(c2ccc(C)cc2)C1` (stereo not shown) [C3H7O, 4-CH3, 3-(2-Methoxyethyl)-1-p-tolyl-3-aza-bicyclo[3.1.0]hexane]: the IC50 in assay [2] (setting [7]) worked out at 10 µM; in assay [3] (setting [8]), 6.5 µM; in assay [4] (setting [9]), 8 µM.
For the compound `CCN1CC2CC2(c2ccc(C)cc2)C1` (stereo not shown) [C2H5,4-CH3, 3-Ethyl-1-p-tolyl-3-aza-bicyclo[3.1.0]hexane], the results for the IC50 in assay [2], in assay [3] and in assay [4] were less than 0.1 µM, less than 0.1 µM and 0.24 µM, respectively.
`Cc1ccc(C23CC2CN(C)C3)cc1` (stereo not shown) [CH3,4-CH3, 3-Methyl-1-p-tolyl-3-aza-bicyclo[3.1.0]hexane]: the IC50 in assay [2] was determined as 0.96 µM; in assay [3], 0.15 µM; in assay [4], 0.19 µM.
Turning to `Cc1ccc(C23CC2CN(C(C)C)C3)cc1` (stereo not shown) [i-C3H7,4-CH3, 3-Isopropyl-1-p-tolyl-3-aza-bicyclo[3.1.0]hexane], the results for the IC50 in assay [2] (setting [7]), in assay [3] (setting [8]) and in assay [4] (setting [9]) were 0.61 µM, 0.23 µM and 0.17 µM, respectively.

The values above are taken from US20060223875A1, “Methods and compositions for production, formulation and use of 1-aryl-3-azabicyclo[3.1.0]hexanes” (priority 2005, published 2006).
